Laboratory results from PMC7468108 (Communications Biology, 2020).

Tests used:
[1] = biological target: T1, pre-formed fibrils of hIAPP (Homo sapiens, UniProt P10997); assay: ThT-binding assay, disaggregation of pre-formed hIAPP fibrils; assay type: biochemical; conditions: for % amyloid of hIAPP in absence or presence of inhibitors: hIAPP 10 µM; for Normalized ThT fluorescence kinetics: hIAPP (10 µM) : molecule 1:5
T1 construct: hIAPP is a 37-amino acid neuroendocrine peptide hormone; purchased Peptide 2.0 (USA)
T1 sequence (P10997 34-70 limits assumed): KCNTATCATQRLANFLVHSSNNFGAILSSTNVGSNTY
Experimental: For efficient treatment of proteinopathies it may be advantageous to disassemble amyloid aggregates/fibrils which are usually already present at the time of diagnosis[75]–[77]. […] Then, various doses of the hybrid molecules were added to the pre-formed fibrils and the mixtures were incubated for additional 10 h. The process of disaggregation was monitored by ThT-binding assay, CD spectroscopy, TEM and Congo red staining (Fig. 5).
The experiment was performed according to the previous report. […] Kinetics fluorescence data were collected at 37 °C in triplicate using Infinite M200 microplate reader (Tecan, Switzerland), with measurements acquired at 15 min intervals. Excitation and emission wavelengths were set at 440 nm and 485 nm, respectively.

Aβ42 = biological target: T2, Aβ42 (Homo sapiens, UniProt P05067); assay: TEM of Aβ42 fibrils formed with the tested molecules; conditions: 5-fold excess of compound
T2 construct: purchased rPeptide (USA)
T2 sequence (P05067 672-713 limits assumed): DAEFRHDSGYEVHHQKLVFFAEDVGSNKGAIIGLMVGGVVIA
Experimental: These fibrils also generated the amyloid specific gold-green birefringence upon staining with Congo red (Fig. 3, bottom panel and Supplementary Fig. 6)[74].
(§1) Samples (10 µL) were placed for 2 min on 400-mesh copper grids covered with carbon-stabilized Formvar film (Electron Microscopy Sciences (EMS), Hatfield, PA). Excess fluid was removed, and grids were negatively stained with 2% uranyl acetate solution (10 µL) for 2 min. After excess fluid removal, the samples were visualized using a JEM-1400 TEM (JEOL), operated at 80 kV.

hIAPP = biological target: T3, hIAPP (Homo sapiens, UniProt P10997); assay: TEM of hIAPP fibrils formed with the tested molecules; conditions: 5-fold molar excess of compound
T3 construct: hIAPP is a 37-amino acid neuroendocrine peptide hormone; purchased Peptide 2.0 (USA)
T3 sequence (P10997 34-70 limits assumed): T1 sequence (P10997 34-70 limits assumed)
Experimental: When hIAPP was incubated with 5-fold molar excess of the hybrid molecules, no typical fibrillar assemblies were observed, rather some amorphous aggregates of different sizes were detected (Fig. 4, upper panel).
as §1

[2] = XTT assay, cytotoxicity of the hybrid molecules towards SH-SY5Y; assay type: cell-based; conditions: human, SH-SY5Y cells
Experimental: To this end, we first tested whether the hybrid molecules carried any cytotoxicity themselves. […] No considerable toxicity (≥95% viability) was caused by the hybrid molecules towards either cell line, even at the highest concentration of 250 µM (Fig. 8).
(§2) The SH-SY5Y and HEK-293 cell lines (2 × 10^5 cells/mL) were cultured in 96-well tissue microplates (100 µL/well) and allowed to adhere overnight at 37 °C. The conjugate molecules were dissolved in DMEM:nutrient mixture F12 (Ham’s) (1:1) (Biological Industries, Israel) at different concentrations. The negative control was prepared as medium without hybrid molecules and treated in the same manner. 100 µL of medium with or without hybrid molecules were added to each well in triplicate. Following incubation for 24 h at 37 °C, cell viability was evaluated using the 2,3-bis(2-methoxy-4-nitro-5-sulfophenyl)-2H-tetrazolium-5-carboxanilide (XTT) cell proliferation assay kit (Biological Industries, Israel) according to the manufacturer’s instructions. Briefly, 100 µL of activation reagent was added to 5 mL of XTT reagent, followed by the addition of 50 µL of activated-XTT solution to each well. After 2 h incubation at 37 °C, color intensity was measured using an ELISA microplate reader at 450 nm and 630 nm. Results are presented as mean and mean standard error. Each experiment was repeated minimum three times.

[3] = test system: SH-SY5Y cells exposed to pre-formed Aβ42 fibrils; assay: XTT assay, reduction of Aβ42-induced cytotoxicity in SH-SY5Y; assay type: cell-based, human; set-up: %Viability: dose or concentration left out as unconfirmed
Experimental: The peptide assemblies were then incubated for further 24 h with SH-SY5Y or HEK-293 cells and cell viability was monitored by XTT assay (Fig. 9). […] The mixtures were then independently applied to the respective cells for 24 h, and cell viability was further measured by XTT assay (Fig. 10a).
as §2
For the quantitative data derived from ThT and XTT assays, statistical significance, expressed as p-value, was determined using Student’s t-test calculation applied at the end of the experiments, setting tails to 2 (tailed distribution) and type to 2 (samples equal variance), according to reported methods. From the XTT viability assays, EC50 and Emax values were determined from the dose-response curves of each tested molecule using non-linear least-square data fitting, according to literature.

[4] = biological target: T4, pre-formed fibrils of Aβ42 (Homo sapiens, UniProt P05067); assay: Congo red birefringence of pre-formed Aβ42 fibrils with the tested molecules; conditions: 5-fold excess of compound
T4 construct: purchased rPeptide (USA)
T4 sequence (P05067 672-713 limits assumed): as above
Experimental: For efficient treatment of proteinopathies it may be advantageous to disassemble amyloid aggregates/fibrils which are usually already present at the time of diagnosis[75]–[77]. Therefore, the ability of the hybrid molecules to disrupt pre-formed fibrils of Aβ42 and hIAPP was examined. […] According to the ThT kinetic results, this time was sufficient to complete fibril formation (Fig. 2a, d). Then, various doses of the hybrid molecules were added to the pre-formed fibrils and the mixtures were incubated for additional 10 h. The process of disaggregation was monitored by ThT-binding assay, CD spectroscopy, TEM and Congo red staining (Fig. 5).

**Q.** Which results are given for `NC(Cc1c[nH]c2ccccc12)C(=O)NC(Cc1c[nH]c2ccccc12)C(=O)O` (centres unmarked) [WW]?
**A.** increase of ThT signal of pre-formed hIAPP fibrils ([1]; compound added to pre-formed fibrils): 20%; % amyloid of hIAPP in absence or presence of inhibitors ([1]; molar ratio hIAPP:tested molecule 1:1): 112.662%; % amyloid of hIAPP in absence or presence of inhibitors ([1]; molar ratio hIAPP:tested molecule 1:5): 117.610%; % amyloid of hIAPP in absence or presence of inhibitors ([1]; molar ratio hIAPP:tested molecule 5:1): 104.704%; Normalized ThT fluorescence kinetics ([1]; time 10.25 h): 100.289; Normalized ThT fluorescence kinetics ([1]; time 10.5 h): 101.480; Normalized ThT fluorescence kinetics ([1]; time 10.75 h): 103.392; Normalized ThT fluorescence kinetics ([1]; time 11 h): 104.551; Normalized ThT fluorescence kinetics ([1]; time 11.25 h): 105.696; Normalized ThT fluorescence kinetics ([1]; time 11.5 h): 107.934; Normalized ThT fluorescence kinetics ([1]; time 11.75 h): 110.096; Normalized ThT fluorescence kinetics ([1]; time 12 h): 110.792; Normalized ThT fluorescence kinetics ([1]; time 12.25 h): 111.709; Normalized ThT fluorescence kinetics ([1]; time 12.5 h): 113.122; Normalized ThT fluorescence kinetics ([1]; time 12.75 h): 114.844; Normalized ThT fluorescence kinetics ([1]; time 13 h): 115.638; Normalized ThT fluorescence kinetics ([1]; time 13.25 h): 116.172; Normalized ThT fluorescence kinetics ([1]; time 13.5 h): 117.523; Normalized ThT fluorescence kinetics ([1]; time 13.75 h): 117.888; Normalized ThT fluorescence kinetics ([1]; time 14 h): 118.165; Normalized ThT fluorescence kinetics ([1]; time 14.25 h): 118.126; Normalized ThT fluorescence kinetics ([1]; time 14.5 h): 117.561; Normalized ThT fluorescence kinetics ([1]; time 14.75 h): 117.932; Normalized ThT fluorescence kinetics ([1]; time 15 h): 118.466; Normalized ThT fluorescence kinetics ([1]; time 15.25 h): 118.713; Normalized ThT fluorescence kinetics ([1]; time 15.5 h): 118.486; Normalized ThT fluorescence kinetics ([1]; time 15.75 h): 118.695; Normalized ThT fluorescence kinetics ([1]; time 16 h): 118.857; Normalized ThT fluorescence kinetics ([1]; time 16.25 h): 118.835; Normalized ThT fluorescence kinetics ([1]; time 16.5 h): 118.502; Normalized ThT fluorescence kinetics ([1]; time 16.75 h): 118.398; Normalized ThT fluorescence kinetics ([1]; time 17 h): 118.694; Normalized ThT fluorescence kinetics ([1]; time 17.25 h): 118.398; Normalized ThT fluorescence kinetics ([1]; time 17.5 h): 118.456; Normalized ThT fluorescence kinetics ([1]; time 17.75 h): 118.427; Normalized ThT fluorescence kinetics ([1]; time 18 h): 117.817; Normalized ThT fluorescence kinetics ([1]; time 18.25 h): 117.835; Normalized ThT fluorescence kinetics ([1]; time 18.5 h): 117.859; Normalized ThT fluorescence kinetics ([1]; time 18.75 h): 117.995; Normalized ThT fluorescence kinetics ([1]; time 19 h): 117.576; Normalized ThT fluorescence kinetics ([1]; time 19.25 h): 117.741; Normalized ThT fluorescence kinetics ([1]; time 19.5 h): 118.044; Normalized ThT fluorescence kinetics ([1]; time 19.75 h): 117.625; Normalized ThT fluorescence kinetics ([1]; time 20 h): 117.610; Aβ42 fibril morphology (TEM), in words (Aβ42): did not display any effect; hIAPP fibril morphology (TEM), in words (hIAPP): clearly visible in a more densely packed network; viability at 24 h, 0.2 µM ([2]; 0.2µM): 98.8%; viability at 24 h, 1 µM ([2]; 1 µM): 100%; viability at 24 h, 10 µM ([2]; 10 µM): 98.4%; viability at 24 h, 50 µM ([2]; 50 µM): 90.9%; viability at 24 h, 250 µM [2]: 88.4%; viability at 24 h, 250 µM ([2]; SH-SY5Y, 24 h): ~88%; %Viability ([3]; Aβ42 […] µM : compound 1:1): 54.466%; %Viability ([3]; Aβ42 […] µM : compound 1:5): 57.303%; %Viability ([3]; Aβ42 […] µM : compound 1:10): 57.999%; %Viability ([3]; Aβ42 […] µM : compound 1:20): 59.030%; %Viability ([3]; Aβ42 […] µM : compound 5:1): 52.403%; %Viability ([3]; Aβ42 […] µM : compound 10:1): 48.896%; %Viability ([3]; Aβ42 […] µM : compound 20:1): 51.423%; %Viability ([3]; Aβ42 […] µM : compound 50:1): 50.031%; EC50 ([3]; Homo sapiens, read-out: Aβ42 EC50): 13 µM; Congo red birefringence of pre-formed Aβ42 fibrils, in words [4]: faint birefringence
